# Legend:
# Format in all cases: biochemical
# plasmin = target: T1, plasmin (Homo sapiens, UniProt P00747); assay: Plasmin inhibition in buffered plasmin solution with chromogenic substrate S-2251 (Example 2); details: 37° C.
# T1 construct: a buffered plasmin solution was used
# Description: In order to analyse plasmin inhibition a buffered plasmin solution was used. The solution was incubated with duck egg ovomucoid or cyklocapron as a control. The solutions were incubated at 37° C. and the chromogenic plasmin substrate S-2251 was added and plasmin activity was measured.
# Thrombin generation [1] = assay: Thrombin generation (calibrated automated thrombogram) in defibrinated normal pooled plasma, absence of fibrinogen; details: 0.5 pM TF, ovomucoid/Trasylol 50-350 U/ml, Cyklokapron 1-8 mg/ml
# Description: (§1) This pilot bioequivalence study aims at investigating the effect of duck egg ovomucoid on the clotting system and assessed its activity against the known anti-thrombolytic agents (Trasylol® “aprotinin” and Cyklokapron” “transamic acid”) by means of the calibrated automated thrombogram (CAT). The CAT method is a functional sensitive assay which detects any hyper- or hypocoagulability in the clotting system, disorders in platelet function and follows up therapy with anti-haemophilia supplements, anticoagulants and antithrombotics.
# In a fibrinolytic patient fibrin is unstable.
# (§2) An optimal concentration of procoagulant phospholipids was used (4 μM). Two concentrations of tissue factor (TF) were added, 5 pM to study the classical extrinsic pathway and 0.5 pM to explore a pathway in which also the antihaemophilic factors (Factor VIII and IX) play a role.
# Thrombin generation [2] = assay: Thrombin generation (calibrated automated thrombogram) in normal non-defibrinated plasma, presence of endogenous fibrinogen; details: for effect on extrinsic-thrombin generation: extrinsic (5 pM TF), ovomucoid/Trasylol 50-350 U/ml, Cyklokapron 1-8 mg; for effect on thrombin generation / coagulation system: low TF concentration (0.5 pM)
# Description: as §1, §2
# Normally fibrin (-ogen) is present during thrombin generation, therefore the above experiments were carried out in normal non-defibrinated plasma. Extrinsic-thrombin generation was conducted in normal plasma spiked with increasing amounts of duck egg ovomucoid (50-350 U/ml) and compared to Trasylol (50-350 U/ml) and to Cyklokapron (1-8 mg).
# T1 sequence (P00747 97-580 limits assumed): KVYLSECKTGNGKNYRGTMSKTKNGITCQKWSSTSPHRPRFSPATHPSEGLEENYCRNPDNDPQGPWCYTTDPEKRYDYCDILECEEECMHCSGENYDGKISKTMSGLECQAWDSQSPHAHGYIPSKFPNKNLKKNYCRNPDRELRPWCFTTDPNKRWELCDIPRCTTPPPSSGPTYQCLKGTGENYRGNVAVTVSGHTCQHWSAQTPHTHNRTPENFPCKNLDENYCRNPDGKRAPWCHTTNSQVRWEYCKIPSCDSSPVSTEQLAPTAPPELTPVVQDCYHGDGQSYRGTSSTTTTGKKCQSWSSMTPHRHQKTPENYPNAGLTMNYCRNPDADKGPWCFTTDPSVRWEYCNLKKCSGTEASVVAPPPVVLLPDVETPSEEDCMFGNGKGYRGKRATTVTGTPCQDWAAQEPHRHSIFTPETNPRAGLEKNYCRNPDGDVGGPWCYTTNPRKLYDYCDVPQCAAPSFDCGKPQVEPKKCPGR
# T1 sequence (P00747 581-810 limits assumed): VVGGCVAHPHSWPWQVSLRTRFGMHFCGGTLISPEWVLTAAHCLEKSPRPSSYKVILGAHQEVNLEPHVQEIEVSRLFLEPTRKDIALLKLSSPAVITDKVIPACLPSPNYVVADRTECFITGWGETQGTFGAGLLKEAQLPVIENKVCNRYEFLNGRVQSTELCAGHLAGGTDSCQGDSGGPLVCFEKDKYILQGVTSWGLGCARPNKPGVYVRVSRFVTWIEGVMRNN
inhibitory effect on plasmin (plasmin),Molecule,effect on thrombin generation (Thrombin generation [1]),effect on extrinsic-thrombin generation (Thrombin generation [2]),effect on thrombin generation / coagulation system (Thrombin generation [2])
inhibitory effect on plasmin,"NC[C@H]1CC[C@H](C(=O)O)CC1 [Cyklokapron, transamic acid]",increased the thrombin generation in a dose-dependent manner,hardly any activity,procoagulant
,aprotinin [Trasylol],inhibited thrombin generation dose-dependently,hardly any activity,dose-dependently anticoagulant

# From patent US20250108099A1, “Ovomucoid for use in a method of managing blood coagulation” (Solution Shop AG, priority 2022, published 2025)
